Source: patent US20230024302A1, “2,3,5-TRISUBSTITUTED PYRAZOLO[1,5-A]PYRIMIDINE COMPOUNDS” (Arcus Biosciences, Inc., priority 2019, published 2023)

What was measured:
PI3Kγ (p120γ) = target: T1, PI3Kγ (p120γ) (Homo sapiens, UniProt P48736); assay: Inhibition of PI3K kinase activity (ADP Glo), PI3Kγ; conditions: Table 1, p120γ, read-out: biochemical potency (PI3Kγ IC50)
T1 construct: purchased Promega V1761
Description: Compounds were evaluated to determine the potency with which they inhibited the kinase activity of the Class I PI3K subunits p110α/p85α (Promega, Cat #V1721), p110β/p85α (Promega, Cat #V1751), p120γ (Promega, Cat #V1761) and p110δ/p85α (Promega, Cat #V1771). Activity was determined as a function of ADP (adenosine diphosphate) generated from ATP consumed during the phosphorylation of Phosphatidylinositol 4,5-bisphosphate (PIP2) (Promega, Cat #V1701) to yield Phosphatidylinositol (3,4,5)-trisphosphate (PIP3). ADP levels in the assay mixture at the end of the reaction were quantitated using ADP Glo (Promega, Cat #V9103) according to the manufacturer's recommended protocol.
Enzyme was prepared for each of the PI3K subunits in 100 mM HEPES, pH 7.4, 100 mM NaCl, 6 mM MgCl2 and 0.05% BSA. p110α/p85α was prepared at 2 nM (2×), p110β/p85α was prepared at 7 nM (2×), p120γ was prepared at 8 nM (2×) and p110δ/p85α was prepared at 2 nM (2×). Five microliters of 2× enzyme dilution of each PI3K subunit were added to a 384-well white Opti-plates pre-dispensed with compound and allowed to incubate for 1 h at rt. A substrate mix containing 0.1 mg/ml (2×) of PIP2 and 50 μM (2×) ATP (Promega, Cat #V915) was prepared in 25 mM HEPES and 0.5 mM EGTA. Reactions were initiated by addition of 5 μl of 2× substrate mix to each well of the plates containing various PI3K isoforms and allowed to proceed for 60 min at rt. Ten microliters of ADP Glo reagent 1 were added to the wells of each plate and allowed to incubate at rt for 45 min according to the manufacturer's directions. Following incubation, 20 μl of ADP Glo reagent 2 was added to each plate and allowed to incubate for an additional 45 min. Luminescent signal, generated by ADP Glo, was quantified by reading on a Perkin Elmer Envision multimode reader. Compound potencies (IC50's) were determined using a standard 4-parameter fit non-linear regression fit.

PI3Kγ = target: T2, PI3Kγ (Homo sapiens, UniProt P48736); assay: PI3Kγ cellular assay in THP-1 cells (AKT pS473 AlphaLISA); assay type: cell-based; conditions: Table 1, rhMCP-1 stimulated AKT pS473, read-out: cellular potency (PI3Kγ IC50)
T2 construct: host or cells: THP-1
Description: Twenty microliters of serum starved THP-1 cells were added to the compound plate in serum free DMEM at a density of 9×10^6 cells per ml. Final assay conditions comprised 1.8×10^5 THP-1 cells per well with test compounds in 2% DMSO across a concentration range from 4 nM to 30 μM. […] Briefly, 10 μL of 4× lysis buffer was added to cells after stimulation. Following 60 min incubation at rt, 10 μL of cell lysate was transferred to a fresh 384-well Opti-plate to which 5 μL of AlphaLisa acceptor beads and 5 μL of AlphaLisa donor beads had been added. […] PI3Kγ activity was evaluated as a correlate of endogenous AKT phosphorylation levels. Percentage maximum activity in each test well was calculated based on DMSO (100% activity) and positive control treated cell wells (0% activity). The potencies (IC50's) of test compounds were determined using a standard 4-parameter fit non-linear regression fit.

T2 sequence (P48736 whole entry): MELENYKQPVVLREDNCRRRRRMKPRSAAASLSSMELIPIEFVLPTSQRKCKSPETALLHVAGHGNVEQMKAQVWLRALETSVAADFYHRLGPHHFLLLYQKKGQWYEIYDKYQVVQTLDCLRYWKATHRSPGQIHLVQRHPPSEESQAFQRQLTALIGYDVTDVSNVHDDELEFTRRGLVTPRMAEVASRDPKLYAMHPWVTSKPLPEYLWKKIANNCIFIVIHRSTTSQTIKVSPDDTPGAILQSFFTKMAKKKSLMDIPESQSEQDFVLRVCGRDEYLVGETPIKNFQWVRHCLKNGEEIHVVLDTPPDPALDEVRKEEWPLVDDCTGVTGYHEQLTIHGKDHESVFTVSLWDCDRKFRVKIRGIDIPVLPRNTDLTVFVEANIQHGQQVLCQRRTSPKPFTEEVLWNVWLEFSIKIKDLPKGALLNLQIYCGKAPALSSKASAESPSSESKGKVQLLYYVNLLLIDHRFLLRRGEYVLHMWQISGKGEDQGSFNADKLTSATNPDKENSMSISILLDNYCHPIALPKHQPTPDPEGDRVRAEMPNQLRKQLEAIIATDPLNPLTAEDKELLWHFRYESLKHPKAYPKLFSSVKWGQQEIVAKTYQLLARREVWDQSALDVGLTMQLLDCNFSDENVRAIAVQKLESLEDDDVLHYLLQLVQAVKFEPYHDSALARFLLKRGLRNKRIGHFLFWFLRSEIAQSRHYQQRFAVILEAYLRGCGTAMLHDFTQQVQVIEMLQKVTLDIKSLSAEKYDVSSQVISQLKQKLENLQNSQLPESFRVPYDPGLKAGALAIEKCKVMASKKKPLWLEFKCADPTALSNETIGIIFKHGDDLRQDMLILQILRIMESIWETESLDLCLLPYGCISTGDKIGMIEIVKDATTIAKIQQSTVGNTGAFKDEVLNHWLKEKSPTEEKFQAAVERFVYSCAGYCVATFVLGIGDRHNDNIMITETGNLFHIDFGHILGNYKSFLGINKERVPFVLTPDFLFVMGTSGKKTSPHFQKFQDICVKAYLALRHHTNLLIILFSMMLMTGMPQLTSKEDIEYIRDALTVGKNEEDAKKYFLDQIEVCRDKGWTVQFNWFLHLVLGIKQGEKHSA
T1 sequence (P48736 whole entry): as above

Structure (SMILES) | IC50 (PI3Kγ (p120γ)) | IC50 (PI3Kγ)
C[C@H](CO)NC(=O)c1c(N)nn2ccc(-c3cc4c(c(OC(F)(F)F)c3)C(=O)N([C@@H](C)C3CC3)C4)nc12 [Example 22, 2-Amino-5-{2-[(1S)-1-cyclopropylethyl]-1-oxo-7-(trifluoromethoxy)-2,3-dihydro-1H-isoindol-5-yl}-N-[(2R)-1-hydroxypropan-2-yl]pyrazolo[1,5-a]pyrimidine-3-carboxamide] | < 100 nM | < 100 nM
C[C@@H](C1CC1)N1Cc2cc(-c3ccn4nc(N)c(C(=O)N[C@H]5CC[C@@](C)(O)CC5)c4n3)cc(OC(F)(F)F)c2C1=O [Example 24, 2-Amino-5-{2-[(1S)-1-cyclopropylethyl]-1-oxo-7-(trifluoromethoxy)-2,3-dihydro-1H-isoindol-5-yl}-N-[cis-4-hydroxy-4-methylcyclohexyl]pyrazolo[1,5-a]pyrimidine-3-carboxamide] | < 100 nM | < 100 nM
CC(C)[C@H](CO)NC(=O)c1c(N)nn2ccc(-c3cc4c(c(OC(F)(F)F)c3)C(=O)N([C@@H](C)C3CC3)C4)nc12 [Example 25, 2-Amino-5-{2-[(1S)-1-cyclopropylethyl]-1-oxo-7-(trifluoromethoxy)-2,3-dihydro-1H-isoindol-5-yl}-N-[(2R)-1-hydroxy-3-methylbutan-2-yl]pyrazolo[1,5-a]pyrimidine-3-carboxamide] | < 100 nM | < 100 nM
C[C@@H](C1CC1)N1Cc2cc(-c3ccn4nc(N)c(C(=O)N[C@@H](CO)C5CC5)c4n3)cc(OC(F)(F)F)c2C1=O [Example 26, 2-Amino-N-[(1R)-1-cyclopropyl-2-hydroxyethyl]-5-{2-[(1S)-1-cyclopropylethyl]-1-oxo-7-(trifluoromethoxy)-2,3-dihydro-1H-isoindol-5-yl}pyrazolo[1,5-a]pyrimidine-3-carboxamide] | < 100 nM | < 100 nM
C[C@H](CO)NC(=O)c1c(N)nn2ccc(-c3cc4c(c(OC(F)(F)F)c3)C(=O)N([C@@H](C)C(F)(F)F)C4)nc12 [Example 27, 2-Amino-N-[(2R)-1-hydroxypropan-2-yl]-5-[1-oxo-7-(trifluoromethoxy)-2-[(2S)-1,1,1-trifluoropropan-2-yl]-2,3-dihydro-1H-isoindol-5-yl]pyrazolo[1,5-a]pyrimidine-3-carboxamide] | < 100 nM | < 100 nM
C[C@@H](C1CC1)N1Cc2cc(-c3ccn4nc(N)c(C(=O)N[C@H]5CC[C@H](C6(O)CC6)CC5)c4n3)cc(OC(F)(F)F)c2C1=O [Example 30, 2-Amino-5-(2-((S)-1-cyclopropylethyl)-1-oxo-7-(trifluoromethoxy)isoindolin-5-yl)-N-(trans-4-(1-hydroxycyclopropyl)cyclohexyl)pyrazolo[1,5-a]pyrimidine-3-carboxamide] | < 100 nM | < 100 nM
C[C@@H](C1CC1)N1Cc2cc(-c3ccn4nc(N)c(C(=O)N[C@H]5CCNC5=O)c4n3)cc(OC(F)(F)F)c2C1=O [Example 32, 2-Amino-5-{2-[(1S)-1-cyclopropylethyl]-1-oxo-7-(trifluoromethoxy)-2,3-dihydro-1H-isoindol-5-yl}-N-[(3S)-2-oxopyrrolidin-3-yl]pyrazolo[1,5-a]pyrimidine-3-carboxamide] | < 100 nM | < 100 nM
C[C@@H](C1CC1)N1Cc2cc(-c3ccn4nc(N)c(C(=O)N[C@@H]5CCC[C@H](N(C)C)C5)c4n3)cc(OC(F)(F)F)c2C1=O [Example 34, 2-Amino-5-{2-[(1S)-1-cyclopropylethyl]-1-oxo-7-(trifluoromethoxy)-2,3-dihydro-1H-isoindol-5-yl}-N-[(1R,3S)-3-(dimethylamino)cyclohexyl]pyrazolo[1,5-a]pyrimidine-3-carboxamide] | < 100 nM | < 100 nM
C[C@@H](C1CC1)N1Cc2cc(-c3ccn4nc(N)c(C(=O)N[C@@H]5CCC[C@H]5O)c4n3)cc(OC(F)(F)F)c2C1=O [Example 35, 2-Amino-5-{2-[(1S)-1-cyclopropylethyl]-1-oxo-7-(trifluoromethoxy)-2,3-dihydro-1H-isoindol-5-yl}-N-[(1R,2R)-2-hydroxycyclopentyl]pyrazolo[1,5-a]pyrimidine-3-carboxamide] | < 100 nM | < 100 nM

Now from value to molecule:

IC50 (PI3Kγ (p120γ)) | IC50 (PI3Kγ) | Structure (SMILES)
< 100 nM | < 100 nM | C[C@@H](C1CC1)N1Cc2cc(-c3ccn4nc(N)c(C(=O)NC5COC5)c4n3)cc(OC(F)(F)F)c2C1=O [Example 21, 2-Amino-5-{2-[(1S)-1-cyclopropylethyl]-1-oxo-7-(trifluoromethoxy)-2,3-dihydro-1H-isoindol-5-yl}-N-(oxetan-3-yl)pyrazolo[1,5-a]pyrimidine-3-carboxamide]
< 100 nM | < 100 nM | C[C@@H](C1CC1)N1Cc2cc(-c3ccn4nc(N)c(C(=O)N[C@H]5C[C@@](C)(O)C5)c4n3)cc(OC(F)(F)F)c2C1=O [Example 23, 2-Amino-5-{2-[(1S)-1-cyclopropylethyl]-1-oxo-7-(trifluoromethoxy)-2,3-dihydro-1H-isoindol-5-yl}-N-[cis-3-hydroxy-3-methylcyclobutyl]pyrazolo[1,5-a]pyrimidine-3-carboxamide]
< 100 nM | < 100 nM | C[C@@H](C1CC1)N1Cc2cc(-c3ccn4nc(N)c(C(=O)N[C@H]5CNC(=O)C5)c4n3)cc(OC(F)(F)F)c2C1=O [Example 28, 2-Amino-5-{2-[(1S)-1-cyclopropylethyl]-1-oxo-7-(trifluoromethoxy)-2,3-dihydro-1H-isoindol-5-yl}-N-[(3R)-5-oxopyrrolidin-3-yl]pyrazolo[1,5-a]pyrimidine-3-carboxamide]
< 100 nM | < 100 nM | C[C@@H](C1CC1)N1Cc2cc(-c3ccn4nc(N)c(C(=O)N[C@H]5CCC[C@@H](O)C5)c4n3)cc(OC(F)(F)F)c2C1=O [Example 29, 2-Amino-5-{2-[(1S)-1-cyclopropylethyl]-1-oxo-7-(trifluoromethoxy)-2,3-dihydro-1H-isoindol-5-yl}-N-[(1S,3R)-3-hydroxycyclohexyl]pyrazolo[1,5-a]pyrimidine-3-carboxamide]
< 100 nM | < 100 nM | C[C@@H](C1CC1)N1Cc2cc(-c3ccn4nc(N)c(C(=O)N[C@H]5CC[C@H](N)CC5)c4n3)cc(OC(F)(F)F)c2C1=O [Example 31, 2-Amino-5-{2-[(1S)-1-cyclopropylethyl]-1-oxo-7-(trifluoromethoxy)-2,3-dihydro-1H-isoindol-5-yl}-N-[trans-4-aminocyclohexyl]pyrazolo[1,5-a]pyrimidine-3-carboxamide]
< 100 nM | < 100 nM | C[C@@H](C1CC1)N1Cc2cc(-c3ccn4nc(N)c(C(=O)N[C@@H]5CCC[C@H](N)C5)c4n3)cc(OC(F)(F)F)c2C1=O [Example 33, 2-Amino-N-[(1R,3S)-3-aminocyclohexyl]-5-{2-[(1S)-1-cyclopropylethyl]-1-oxo-7-(trifluoromethoxy)-2,3-dihydro-1H-isoindol-5-yl}pyrazolo[1,5-a]pyrimidine-3-carboxamide]
< 100 nM | < 100 nM | C[C@@H](C1CC1)N1Cc2cc(-c3ccn4nc(N)c(C(=O)N[C@H]5CC[C@H](O)C5)c4n3)cc(OC(F)(F)F)c2C1=O [Example 36, 2-Amino-5-{2-[(1S)-1-cyclopropylethyl]-1-oxo-7-(trifluoromethoxy)-2,3-dihydro-1H-isoindol-5-yl}-N-[(1S,3S)-3-hydroxycyclopentyl]pyrazolo[1,5-a]pyrimidine-3-carboxamide]
< 100 nM | < 100 nM | C[C@@H](C1CC1)N1Cc2cc(-c3ccn4nc(N)c(C(=O)N[C@@H]5CC[C@@H](O)C5)c4n3)cc(OC(F)(F)F)c2C1=O [Example 37, 2-Amino-5-{2-[(1S)-1-cyclopropylethyl]-1-oxo-7-(trifluoromethoxy)-2,3-dihydro-1H-isoindol-5-yl}-N-[(1R,3R)-3-hydroxycyclopentyl]pyrazolo[1,5-a]pyrimidine-3-carboxamide]
